Laboratory results published in paper PMC7611167 (Journal of medicinal chemistry, 2019).

Tests used:
[1] = test system: A/Puerto Rico/8/34 (H1N1); format: cell-based, influenza A virus
panel of 59 kinases = test: Kinase panel; format: biochemical
GSK3β = GSK3β (Homo sapiens, UniProt P49841); test: Kinase panel, GSK3β; format: biochemical; conditions: at 1μM
[2] = test system: influenza A/Puerto Rico/8/34 (H1N1); conditions: mouse, in vivo, po, 30 mg/kg
aldehyde oxidase (AO) = target: T1, aldehyde oxidase (AO) (Homo sapiens, UniProt Q06278); test: Aldehyde oxidase metabolism in human liver cytosol; format: in vitro ADME; conditions: 1 μM, 1 mg/mL protein, 37°C, up to 60 minutes, with or without Raloxifene
T1 sequence (Q06278 1-1338): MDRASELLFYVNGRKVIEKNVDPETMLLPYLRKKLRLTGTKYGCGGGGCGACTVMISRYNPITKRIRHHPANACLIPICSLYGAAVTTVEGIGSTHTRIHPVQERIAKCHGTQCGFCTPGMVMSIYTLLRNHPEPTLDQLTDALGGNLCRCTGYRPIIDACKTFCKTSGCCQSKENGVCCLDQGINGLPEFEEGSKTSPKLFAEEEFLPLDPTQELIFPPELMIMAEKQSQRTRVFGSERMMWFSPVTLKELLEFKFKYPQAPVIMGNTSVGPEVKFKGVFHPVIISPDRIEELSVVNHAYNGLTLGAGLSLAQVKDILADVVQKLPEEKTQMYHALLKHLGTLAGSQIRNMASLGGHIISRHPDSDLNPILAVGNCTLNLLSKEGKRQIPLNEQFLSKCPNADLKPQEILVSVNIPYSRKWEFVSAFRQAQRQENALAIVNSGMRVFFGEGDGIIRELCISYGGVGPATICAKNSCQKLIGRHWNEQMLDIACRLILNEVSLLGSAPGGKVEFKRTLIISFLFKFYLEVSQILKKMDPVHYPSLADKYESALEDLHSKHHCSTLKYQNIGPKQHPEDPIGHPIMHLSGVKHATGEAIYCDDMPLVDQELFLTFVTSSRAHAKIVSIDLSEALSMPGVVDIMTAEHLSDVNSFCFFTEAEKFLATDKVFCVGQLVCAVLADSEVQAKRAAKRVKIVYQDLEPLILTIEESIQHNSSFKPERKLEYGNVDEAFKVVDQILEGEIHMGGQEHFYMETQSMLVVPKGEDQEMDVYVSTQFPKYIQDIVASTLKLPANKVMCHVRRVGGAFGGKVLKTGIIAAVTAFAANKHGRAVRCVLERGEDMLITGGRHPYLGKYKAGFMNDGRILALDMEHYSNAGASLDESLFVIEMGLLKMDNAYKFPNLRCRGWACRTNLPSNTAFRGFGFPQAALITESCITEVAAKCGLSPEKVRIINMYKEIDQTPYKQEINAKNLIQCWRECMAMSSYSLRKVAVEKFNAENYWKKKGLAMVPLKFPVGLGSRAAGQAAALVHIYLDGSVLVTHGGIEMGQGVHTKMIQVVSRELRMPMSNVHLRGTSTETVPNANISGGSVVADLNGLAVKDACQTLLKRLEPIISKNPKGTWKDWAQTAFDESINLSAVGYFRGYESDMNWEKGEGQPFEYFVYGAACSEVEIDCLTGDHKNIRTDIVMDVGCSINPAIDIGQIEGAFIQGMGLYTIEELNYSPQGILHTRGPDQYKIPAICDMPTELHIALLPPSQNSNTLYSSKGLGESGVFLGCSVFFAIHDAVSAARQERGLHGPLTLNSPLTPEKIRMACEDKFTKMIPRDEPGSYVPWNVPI

Sequence of GSK3β (P49841 whole entry, species assumed): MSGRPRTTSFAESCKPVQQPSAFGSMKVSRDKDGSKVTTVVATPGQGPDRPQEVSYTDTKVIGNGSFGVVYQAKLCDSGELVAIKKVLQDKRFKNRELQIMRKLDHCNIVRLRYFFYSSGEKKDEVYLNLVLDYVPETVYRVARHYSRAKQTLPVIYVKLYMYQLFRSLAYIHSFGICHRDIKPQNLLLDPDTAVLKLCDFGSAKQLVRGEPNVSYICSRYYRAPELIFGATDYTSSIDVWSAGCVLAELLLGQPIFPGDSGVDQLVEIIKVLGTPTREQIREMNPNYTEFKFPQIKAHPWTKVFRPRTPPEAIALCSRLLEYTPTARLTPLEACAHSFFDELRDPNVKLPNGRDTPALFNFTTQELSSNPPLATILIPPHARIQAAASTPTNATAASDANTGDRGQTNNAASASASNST

N#Cc1cc(F)c2[nH]cc(-c3ncc(F)c(N[C@H]4C5CCC(CC5)[C@@H]4C(=O)O)n3)c2c1 [Compound 11d, (2S,3S)-3-((2-(5-cyano-7-fluoro-1H-indol-3-yl)-5-fluoropyrimidin-4-yl)amino) bicyclo[2.2.2]octane-2-carboxylic acid]
A/Puerto Rico/8/34 SI (selectivity index, CC50/IC50) [1]: >612

O=C(O)[C@H]1C2CCC(CC2)[C@@H]1Nc1nc(-c2c[nH]c3c(F)cc(F)cc23)ncc1F [Compound 11a, (2S,3S)-3-((2-(5,7-difluoro-1H-indol-3-yl)-5-fluoropyrimidin-4-yl)amino)bicyclo [2.2.2]octane-2-carboxylic acid]
Activity across a panel of 59 kinases (panel of 59 kinases): inactive
GSK3β inhibition (GSK3β): no inhibition
Body weight course [2]: regained weight from day 11

O=C(O)[C@H]1C2CCC(CC2)[C@@H]1Nc1nc(-c2c[nH]c3c(F)cc(Cl)cc23)ncc1F [Compound 11b, (2S,3S)-3-((2-(5-chloro-7-fluoro-1H-indol-3-yl)-5-fluoropyrimidin-4-yl)amino)bicyclo-[2.2.2]octane-2-carboxylic acid]
A/Puerto Rico/8/34 SI (selectivity index, CC50/IC50) [1]: >485

CCOC(=O)C1=C[C@@H](OC(CC)CC)[C@H](NC(C)=O)[C@@H](N)C1 [Oseltamivir, reference compound]
A/Puerto Rico/8/34 SI (selectivity index, CC50/IC50) [1]: >4132

c1ccc2cnncc2c1 [phthalazine]
Aldehyde oxidase (AO) metabolism in human liver cytosol (aldehyde oxidase (AO)): AO metabolism in the normal range
